From patent US20210395653A1, “COMPOSITIONS FOR TREATMENT AND METHODS FOR MAKING AND USING THE SAME” (ASP Global Manufacturing GmbH, priority 2018, published 2021)

Assay: Solubility of added 5% CHG in commercial detergent compositions
Type: physicochemical

- Solubility of CHG in detergent composition C2 (5% CHG added to C2): insoluble
- Solubility of CHG in detergent composition C3 (5% CHG added to C3): insoluble
- Solubility of CHG in detergent composition C6 (5% CHG added to C6): insoluble
Structure (SMILES): N=C(NCCCCCCNC(=N)NC(=N)Nc1ccc(Cl)cc1)NC(=N)Nc1ccc(Cl)cc1.O=C(O)[C@H](O)[C@@H](O)[C@H](O)[C@H](O)CO.O=C(O)[C@H](O)[C@@H](O)[C@H](O)[C@H](O)CO [CHG, chlorhexidine gluconate]
